One data set can be described thus: physchem. The note with it: kinetic from dmso stock. The protocol:
Turbimetric Assay: Determination of Solubility
The solubility of the compounds was measured using a turbidimetric method. A series of doubling dilutions of compounds were prepared in neat dimethyl sulfoxide (DMSO). 5 μl samples were diluted twenty-fold into 95 μl volumes of 100 mM citrate buffer (pH 4), phosphate buffered saline (PBS, pH 7.4) or carbonate-bicarbonate buffer (pH 9) in microtitre assay plates and allowed to reach equilibrium at room temperature for 24 hours. The absorbance within each well of the plate was read spectrophotometrically at a wavelength of 620 nm. A precipitate forms when the maximum aqueous solubility level is reached. The value quoted is the highest concentration where the compound was in solution i.e. where no measurable precipitate was present. […] ND=not determined

The subject of data set [1] is Staphylococcus aureus (Isolate ID ATCC 29213). Nature of the data set: Antibacterial activity, MIC, S. aureus. Format: cell-based. The note with it: broth microdilution or agar dilution; for MIC: Staphylococcus aureus, ATCC29213, Gram positive strain; for Antibacterial Activity (MIC) S. aureus (ATCC 29213): Gram positive strain. The protocol: (§1) Bacterial Assay: Determination of Antibacterial Activity
(§2) Compounds of the invention were tested for antimicrobial activity by susceptibility testing in liquid or on solid media. MICs for compounds against each strain were determined by the broth microdilution or agar dilution method according to the guidelines of the Clinical Laboratories and Standards Institute, formerly the National Committee for Clinical Laboratory Standards (Clinical Laboratories and Standards Institute. Methods for Dilution Antimicrobial Susceptibility Tests for Bacteria That Grow Aerobically; Approved Standard—Seventh Edition. Document M7-A7. CLSI, Wayne, Pa., 2006; Clinical Laboratories and Standards Institute. The gram positive bacterial strains tested include S. aureus (Staphylococcus aureus (Isolate ID ATCC 29213)), E. faecalis (Enterococcus faecalis (Isolate ID ATCC 29212)) and S. pyogenes (Streptococcus pyogenes (Isolate ID ATCC 51339)). The gram negative bacterial strains tested include H. influenzae (Haemophilus influenzae (Isolate ID ATCC 49247))
For orientation: Broth dilution looks for growth in wells or tubes with falling amounts of substance.

Data set [2] relates to Streptococcus pyogenes (Isolate ID ATCC 51339). Nature of the data set: Antibacterial activity, MIC, S. pyogenes. The class given is cell-based. The conditions noted are these: broth microdilution or agar dilution; for MIC: Streptococcus pyogenes, ATCC51339, Gram positive strain; for Antibacterial Activity (MIC) S. pyogenes (ATCC 51339): Gram positive strain. How it is done:
as §1, §2

Data set [3] concerns Haemophilus influenzae (Isolate ID ATCC 49247). Put plainly: Antibacterial activity, MIC, H. influenzae. The class given is cell-based. The conditions noted are these: Gram negative strain, broth microdilution or agar dilution; for MIC: Haemophilus influenzae, ATCC49247. How it is done: as §1, §2
Setting [4] is: pH 7.4, aqueous buffer, Max Solubility.
Setting [5] is: pH 7.4, aqueous buffer, Solubility (pH 7.4).
[6] abbreviates: pH 7.4, aqueous buffer, Solubility Range.
[7] abbreviates: pH 7.4, aqueous buffer, Solubility Range (maximum solubility).

In brackets after ≈: the same amount, converted by molar mass.

Broadly, the solubility is the dissolved amount per volume that the medium holds. Consider `CCNC(=O)Nc1nc2cc(-c3cnc(N4CCC(C)(C(=O)O)CC4)nc3)cc(-c3ncc(C)cc3F)c2s1` [Compound 93], for which the solubility at 24 h in the data set “physchem” (setting [4]) was no less than 800 µg/mL; in “physchem” (setting [5]) it was no less than 800 µg/mL; in the data set “physchem” (setting [6]), greater than 800 µg/mL; in the data set “physchem” (setting [7]), greater than 800 µg/mL. Further, the MIC in data set [1] was no more than 0.25 µg/mL; in data set [2], no more than 0.25 µg/mL; in data set [3] it was 1 to 16 µg/mL (≈ 1.82 to 29.1 µM).

For `CCNC(=O)Nc1nc2cc(-c3cnc(N4CCC(C)(C(=O)O)CC4)nc3)cc(/C(C)=N/OCC(F)(F)F)c2s1` [Compound 94], the solubility at 24 h in “physchem” (setting [4]) is no less than 800 µg/mL; in the data set “physchem” (setting [5]), no less than 800 µg/mL; in “physchem” (setting [6]) it was greater than 800 µg/mL; in “physchem” (setting [7]), greater than 800 µg/mL. Also, the values for the MIC in data set [1], in data set [2] and in data set [3] were 1 to 16 µg/mL (≈ 1.73 to 27.6 µM), 1 to 16 µg/mL (≈ 1.73 to 27.6 µM) and greater than 16 µg/mL, respectively.

In the case of `CCNC(=O)Nc1nc2cc(-c3cnc(N4CCC(C)(C(=O)O)CC4)nc3)cc(/C(C)=N/O)c2s1` [Compound 95], the solubility at 24 h was no less than 800 µg/mL in the data set “physchem” (setting [4]), no less than 800 µg/mL in the data set “physchem” (setting [5]), greater than 800 µg/mL in “physchem” (setting [6]) and greater than 800 µg/mL in “physchem” (setting [7]). For the same compound, the results for the MIC in data set [1], in data set [2] and in data set [3] were 1 to 16 µg/mL (≈ 2.01 to 32.2 µM), 0.25 to 1 µg/mL (≈ 0.502 to 2.01 µM) and greater than 16 µg/mL, respectively.

For the compound `CCNC(=O)Nc1nc2cc(-c3cnc(N4CCC(C)(C(=O)O)CC4)nc3)cc(/C(C)=N/OCC)c2s1` [Compound 96], the solubility at 24 h in “physchem” (setting [4]) was no less than 800 µg/mL; in the data set “physchem” (setting [5]), no less than 800 µg/mL; in the data set “physchem” (setting [6]), greater than 800 µg/mL; in “physchem” (setting [7]), greater than 800 µg/mL. Moreover, the results for the MIC in data set [1], in data set [2] and in data set [3] were no more than 0.25 µg/mL, 0.25 to 1 µg/mL (≈ 0.476 to 1.9 µM) and 1 to 16 µg/mL (≈ 1.9 to 30.4 µM), respectively.

`CCNC(=O)Nc1nc2cc(-c3cnc(N4CCC(C)(C(=O)O)CC4)nc3)cc(C(=O)NCC)c2s1` [Compound 97, 1-[5-[7-(Ethylcarbamoyl)-2-(ethylcarbamoylamino)-1,3-benzothiazol-5-yl]pyrimidin-2-yl]-4-methyl-piperidine-4-carboxylic acid]: the solubility at 24 h in “physchem” (setting [4]) was no less than 800 µg/mL; in “physchem” (setting [5]) it was no less than 800 µg/mL; in the data set “physchem” (setting [6]) it was greater than 800 µg/mL; in “physchem” (setting [7]), greater than 800 µg/mL. In addition, the MIC is greater than 16 µg/mL in data set [1], 1 to 16 µg/mL (≈ 1.95 to 31.3 µM) in data set [2] and greater than 16 µg/mL in data set [3].

As for `CCNC(=O)Nc1nc2cc(-c3cnc(N4CCC(CC)(C(=O)O)CC4)nc3)cc(/C(C)=N/OC)c2s1` [Compound 116, 4-ethyl-1-[5-[2-(ethylcarbamoylamino)-7-[(E)-N-methoxy-C-methyl-carbonimidoyl]-1,3-benzothiazol-5-yl]pyrimidin-2-yl]piperidine-4-carboxylic acid], the solubility at 24 h was no less than 800 µg/mL in the data set “physchem” (setting [4]), no less than 800 µg/mL in the data set “physchem” (setting [5]), greater than 800 µg/mL in “physchem” (setting [6]) and greater than 800 µg/mL in the data set “physchem” (setting [7]). Besides, the MIC is no more than 0.25 µg/mL in data set [1], no more than 0.25 µg/mL in data set [2] and 1 to 16 µg/mL (≈ 1.9 to 30.4 µM) in data set [3].

On to `CCNC(=O)Nc1nc2cc(-c3cnc(N4CCC(C)(C(=O)O)CC4)nc3)cc(CN3CCOCC3)c2s1` [Compound 158, 1-[5-[2-(ethylcarbamoylamino)-7-(morpholinomethyl)-1,3-benzothiazol-5-yl]pyrimidin-2-yl]-4-methyl-piperidine-4-carboxylic acid], for which the solubility at 24 h is no less than 800 µg/mL in the data set “physchem” (setting [4]), no less than 800 µg/mL in “physchem” (setting [5]), greater than 800 µg/mL in “physchem” (setting [6]) and greater than 800 µg/mL in “physchem” (setting [7]). Besides, the MIC in data set [1] is 1 to 16 µg/mL (≈ 1.85 to 29.6 µM); in data set [2] it was 1 to 16 µg/mL (≈ 1.85 to 29.6 µM); in data set [3], greater than 16 µg/mL.

With `CCNC(=O)Nc1nc2cc(-c3cnc(N4CCC(C)(C(=O)O)CC4)nc3)cc(C(=O)N3CCOCC3)c2s1` [Compound 159, 1-[5-[2-(ethylcarbamoylamino)-7-(morpholine-4-carbonyl)-1,3-benzothiazol-5-yl]pyrimidin-2-yl]-4-methyl-piperidine-4-carboxylic acid], the solubility at 24 h in the data set “physchem” (setting [4]) was 400 µg/mL (≈ 722 µM); in “physchem” (setting [5]), 400 µg/mL (≈ 722 µM); in the data set “physchem” (setting [6]), 400 to 800 µg/mL (≈ 722 to 1440 µM); in “physchem” (setting [7]), 400 to 800 µg/mL (≈ 722 to 1440 µM). In addition, the MIC in data set [1], in data set [2] and in data set [3] was greater than 16 µg/mL throughout.

In the case of `CCNC(=O)Nc1nc2cc(-c3cnc(N4CCC(C)(C(=O)O)CC4)nc3)nc(-c3ccccn3)c2s1` [Compound 162, 1-[5-[2-(ethylcarbamoylamino)-4-(2-pyridyl)thiazolo[5,4-c]pyridin-6-yl]pyrimidin-2-yl]-4-methyl-piperidine-4-carboxylic acid], the solubility at 24 h in “physchem” (setting [5]) was 200 µg/mL (≈ 386 µM); in the data set “physchem” (setting [6]) it was 12.5 to 400 µg/mL (≈ 24.1 to 771 µM); in the data set “physchem” (pH 9, aqueous buffer, Max Solubility) it was 400 µg/mL (≈ 771 µM); in the data set “physchem” (pH 9, aqueous buffer, Solubility Range (maximum solubility)), 400 to 800 µg/mL (≈ 771 to 1540 µM). The values for the MIC in data set [1], in data set [2] and in data set [3] were no more than 0.25 µg/mL, no more than 0.25 µg/mL and 1 to 16 µg/mL (≈ 1.93 to 30.9 µM), respectively.

`CCNC(=O)Nc1nc2cc(-c3cnc(N4CCCC(C)(C(=O)O)CC4)nc3)cc(-c3ccccn3)c2s1` (stereo not drawn) [Compound 166]: the solubility at 24 h was no less than 800 µg/mL in the data set “physchem” (setting [4]), no less than 800 µg/mL in “physchem” (setting [5]), greater than 800 µg/mL in the data set “physchem” (setting [6]) and greater than 800 µg/mL in “physchem” (setting [7]). For the same compound, the MIC in data set [1] was no more than 0.25 µg/mL; in data set [2] it was no more than 0.25 µg/mL; in data set [3] it was 1 to 16 µg/mL (≈ 1.88 to 30.1 µM).

Consider `CCNC(=O)Nc1nc2cc(-c3cnc(N4CCC(CC)(C(=O)O)CC4)nc3)cc(/C=N/OC)c2s1` [Compound 189, 4-Ethyl-1-[5-[2-(ethylcarbamoylamino)-7-[(E)-methoximinomethl]-1,3-benzothiazol-5-yl]pyrimidin-2-yl]piperidine-4-carboxylic acid], for which the “Antibacterial Activity (MIC) S. aureus (ATCC 29213)” value in data set [1] is on record as “A (“A” activity ≦0.25 μg/mL)”. In data set [2], the “Antibacterial Activity (MIC) S. pyogenes (ATCC 51339)” value is recorded as “A (“A” activity ≦0.25 μg/mL)”. Also, the “Antibacterial Activity (MIC) H. influenzae (ATCC 49247)” value in data set [3] is “C (“C” activity >1.0 μg/mL-16 μg/mL)”.

Consider `CCNC(=O)Nc1cn2c(-n3cccn3)cc(-c3cnc(N4CCC(CC)(C(=O)O)CC4)nc3)cc2n1` [Compound 230, 4-ethyl-1-[5-[2-(ethylcarbamoylamino)-5-pyrazol-1-yl-imidazo[1,2-a]pyridin-7-yl]pyrimidin-2-yl]piperidine-4-carboxylic acid], for which the MIC in data set [1] was 1 to 16 µg/mL (≈ 1.99 to 31.8 µM); in data set [2] it was 1 to 16 µg/mL (≈ 1.99 to 31.8 µM); in data set [3] it was greater than 16 µg/mL.

Regarding `CCNC(=O)Nc1cn2c(-n3cccn3)cc(-c3cnc(N4CCC(C)(C(=O)O)CC4)nc3)cc2n1` [Compound 231, 1-[5-[2-(ethylcarbamoylamino)-5-pyrazol-1-yl-imidazo[1,2-a]pyridin-7-yl]pyrimidin-2-yl]-4-methyl-piperidine-4-carboxylic acid], the MIC in data set [1] was greater than 16 µg/mL; in data set [2] it was 1 to 16 µg/mL (≈ 2.04 to 32.7 µM).

On to `CCNC(=O)Nc1nc2cc(-c3nc(N4CCC(C)(C(=O)O)CC4)ns3)cc(-c3ccccn3)c2s1` [Compound 233, 1-(5-{2-[(ethylcarbamoyl)amino]-7-(pyridin-2-yl)-1,3-benzothiazol-5-yl}-1,2,4-thiadiazol-3-yl)-4-methylpiperidine-4-carboxylic acid], for which the “Antibacterial Activity (MIC) S. aureus (ATCC 29213)” value in data set [1] was “B (“B” activity >0.25 μg/mL-1.0 μg/mL)”. Moreover, in data set [2], the “Antibacterial Activity (MIC) S. pyogenes (ATCC 51339)” value is recorded as “B (“B” activity >0.25 μg/mL-1.0 μg/mL)”. The “Antibacterial Activity (MIC) H. influenzae (ATCC 49247)” value in data set [3] is given as “D (“D” activity >16 μg/mL)”.

The values above are taken from US9181234B2, “Antibacterial compounds” (priority 2010, dated 2015).
